In PMC2736327 (Molecular carcinogenesis, 2009):

Target: autotaxin (ATX) (Homo sapiens, UniProt Q13822)
Type: biochemical

## VPC8a202
  Ki: ~390 nM
